Measurements taken from paper PMC3320615, “β-Microseminoprotein Endows Post Coital Seminal Plasma with Potent Candidacidal Activity by a Calcium- and pH-Dependent Mechanism” (PLoS Pathogens, 2012).

How the values were obtained:
[1] = system: Candida albicans ATCC 90028; assay: CFU assay with C. albicans; format: cell-based; conditions: for Estimate (difference between means of log values): control - treatment
From the text: Candida albicans strains: ATCC 90028, CAF-1-2, SC5814, BM4f35II68, vaginal clinical isolates from Dept. of Clincal Microbiology, Skåne University Hospital, SO_303369 and SO_503471. Candida parapsilosis strains: ATCC 90018, BD1800, BD17837, and BM24/68/09. Candida glabrata strains: ATCC 90030, clinical isolates from Dept. of Clincal Microbiology, Skåne University Hospital, SO_3336, SO_3400 and SO_503413. All strains were inoculated from frozen culture and grown in Yeast extract-Peptone-Dextrose (YPD) (Sigma) and on Sabourand Dextrose Broth (SAB) (Difco) plates at 30°C with 5% (v/v) CO2. If not otherwise stated, ATCC 90028 was used for candidacidal experiments.
Candida albicans was grown over night, washed, and resuspended in 10 mM Tris, 5 mM glucose, pH 7.4 or pH 4. Approximately 4×10^3 to 10^4 CFU of C. albicans were incubated with the test substance in low or neutral pH buffer for 4 h at 37°C. After incubation, the suspension was diluted and plated. Colonies were counted after two days incubation of the plates at 30°C. Bacteria from overnight cultures were inoculated in fresh medium and grown for 3 h, washed in 10 mM Tris, 5 mM glucose pH 7.4. Approximately 8×10^4 CFU were incubated with sample in 10 mM Tris, 5 mM glucose pH 7.4 or pH 4 for 1 h at 37°C, diluted, plated and incubated over night at 37°C and the colonies counted.
Statistical analysis was performed using SAS 9.2 software (SAS Institute, Cary, NC). Colony counts were log transformed. In order to choose the statistical method, interactions between the Treatment and Experiment were investigated. Treatments were screened by doing pair wise comparisons of each treatment to a control. Statistical tests used for the comparisons included MIXED procedure and LSMEANS statement. All tests where P-value<.05 were considered to indicate statistical significance. P-values were not adjusted for the multiple comparisons.
“Estimate” is the estimate of the difference between means of log values of treatment 1 and treatment 2

[2] = Liposome leakage (carboxyfluorescein release); format: biochemical; conditions: control experiments with EDTA alone
Method: Subsequently, buffer (10 mM Tris, pH 7.4) was added together with 0.1 M carboxyfluorescein (CF) (Sigma, St Louis, MO). After hydration, the lipid mixture was subjected to eight freeze-thaw cycles consisting of freezing in liquid nitrogen and heating to 60°C. Unilamellar liposomes of about Ø140 nm were generated by multiple extrusions through polycarbonate filters (pore size 100 nm) mounted in a […] (Avestin, Ottawa, Canada) at 22°C. Untrapped CF was then removed by two gel filtrations (Sephadex G-50) at 22°C, with Tris buffer as eluent. CF release was determined by monitoring the emitted fluorescence at 520 nm from liposome dispersions (10 mM lipid in 10 mM Tris). An absolute leakage scale was obtained by disrupting the liposomes at the end of the experiment through addition of 0.8 mM Triton X100 (Sigma, St Louis, MO), causing 100% release and dequenching of CF. Although calcein is frequently used for pH-dependent leakage studies, the high charge of this dye has been noted to influence its leakage behavior in the presence of highly cationic peptides. Instead, therefore, CF was used as a leakage marker at both pH 6.0 and 7.4, avoiding pH-dependent fluorescence effects through neutralization prior to probing the limiting leakage in case of pH 6.0 leakage. Throughout, a SPEX-fluorolog 1650 0.22-m double spectrometer (SPEX Industries, Edison, NJ) was used for the liposome leakage assay. Measurements were performed in at least triplicate at 37°C.

C. albicans = assay: Antifungal gel overlay assay (AU-PAGE); format: cell-based, Candida albicans
Method: Gel overlay assay was performed essentially as described. Briefly, duplicate samples were run on native Acid Urea (AU-PAGE) gels in 5% (v/v) acetic acid at 100 V for 1 h 20 min. Candida albicans was grown over night, washed and resuspended in 10 mM NaPO4 pH 7.4 and approximately 1×10^5 CFU were added to 12 ml melted underlay agarose (10 mM NaPO4, pH 7.4, 0.03% SAB, 1% agarose type 1 (Sigma, St. Louis, MO)) and poured into a square Petri dish. One AU-gel was stained with Coomassie brilliant blue and one AU gel was washed 3×4 min in 10 mM NaPO4, pH 7.4 and then placed on top of the agarose and incubated for 4 h at 37°C. The AU gel was then removed and an overlay agarose (6% SAB, 1% agarosetype 1 (Sigma)) was poured on top of the underlay and incubated over night at 30°C. To make the clearing zones more visible, the agarose was stained with Coomassie brilliant blue followed by destaining.

[3] = 5 µM, pH 4, with EDTA, experiment 1
[4] = 5 µM, pH 4, with EDTA, experiment 2
[5] = 5 µM, pH 4, with EDTA, experiment 3
[6] = 5 µM, pH 4, without EDTA, experiment 1
[7] = 5 µM, pH 4, without EDTA, experiment 2
[8] = 5 µM, pH 4, without EDTA, experiment 3

In the case of “RKCMDLKGNKHPINSEWQTD [MSP2, synthetic MSP-derived peptide]”, the “Estimate (difference between means of log values)” value [1, 3] is reported as 0.5727, the “Estimate (difference between means of log values)” value [1, 4] is reported as 0.2951 and the “Estimate (difference between means of log values)” value [1, 5] is reported as 0.5877. For the same molecule, the “Estimate (difference between means of log values)” value [1, 6] was -0.4638, the “Estimate (difference between means of log values)” value [1, 7] was -0.7678 and the “Estimate (difference between means of log values)” value [1, 8] was 0.2466.
With LL-37 [reference compound] the “Estimate (difference between means of log values)” value ([1]; 50 µM LL-37, pH 4, + 50 µM calcium, experiment 1) was 1.6956, the “Estimate (difference between means of log values)” value ([1]; 50 µM LL-37, pH 4, + 50 µM calcium, experiment 2) was 1.8880 and the “Estimate (difference between means of log values)” value ([1]; 50 µM LL-37, pH 4, + 75 µM calcium, experiment 1) was 1.5909. The “Estimate (difference between means of log values)” value ([1]; 50 µM LL-37, pH 4, + 75 µM calcium, experiment 2) was 1.5305, the “Estimate (difference between means of log values)” value ([1]; 50 µM LL-37, pH 4, + 100 µM calcium, experiment 1) was 1.3942 and the “Estimate (difference between means of log values)” value ([1]; 50 µM LL-37, pH 4, + 100 µM calcium, experiment 2) was 1.4384. For the same molecule, the “Estimate (difference between means of log values)” value ([1]; 50 µM LL-37, pH 4, + 200 µM calcium, experiment 1) was 1.3064, the “Estimate (difference between means of log values)” value ([1]; 50 µM LL-37, pH 4, + 200 µM calcium, experiment 2) was 1.4253 and the “Estimate (difference between means of log values)” value ([1]; 50 µM LL-37, pH 4, no calcium, experiment 1) was 1.6339. For the same molecule, the “Estimate (difference between means of log values)” value ([1]; 50 µM LL-37, pH 4, no calcium, experiment 2) was 2.4025, the “Estimate (difference between means of log values)” value ([1]; 50 µM LL-37, pH 7.4, + 50 µM calcium, experiment 1) was 2.0757 and the “Estimate (difference between means of log values)” value ([1]; 50 µM LL-37, pH 7.4, + 50 µM calcium, experiment 2) was 2.0565. The “Estimate (difference between means of log values)” value ([1]; 50 µM LL-37, pH 7.4, + 50 µM calcium, experiment 3) was 2.6878, the “Estimate (difference between means of log values)” value ([1]; 50 µM LL-37, pH 7.4, + 75 µM calcium, experiment 1) was 1.1627 and the “Estimate (difference between means of log values)” value ([1]; 50 µM LL-37, pH 7.4, + 75 µM calcium, experiment 2) was 2.6753. For the same molecule, the “Estimate (difference between means of log values)” value ([1]; 50 µM LL-37, pH 7.4, + 75 µM calcium, experiment 3) was 2.9703, the “Estimate (difference between means of log values)” value ([1]; 50 µM LL-37, pH 7.4, + 100 µM calcium, experiment 1) was 1.6404 and the “Estimate (difference between means of log values)” value ([1]; 50 µM LL-37, pH 7.4, + 100 µM calcium, experiment 2) was 2.5186. The “Estimate (difference between means of log values)” value ([1]; 50 µM LL-37, pH 7.4, + 100 µM calcium, experiment 3) was 2.6194, the “Estimate (difference between means of log values)” value ([1]; 50 µM LL-37, pH 7.4, + 200 µM calcium, experiment 1) was 1.4145 and the “Estimate (difference between means of log values)” value ([1]; 50 µM LL-37, pH 7.4, + 200 µM calcium, experiment 2) was 2.7659. The “Estimate (difference between means of log values)” value ([1]; 50 µM LL-37, pH 7.4, + 200 µM calcium, experiment 3) was 3.5282, the “Estimate (difference between means of log values)” value ([1]; 50 µM LL-37, pH 7.4, no calcium, experiment 1) was 3.2986 and the “Estimate (difference between means of log values)” value ([1]; 50 µM LL-37, pH 7.4, no calcium, experiment 2) was 3.2280. The “Estimate (difference between means of log values)” value ([1]; 50 µM LL-37, pH 7.4, no calcium, experiment 3) was 4.0296.
For “TNKCQKILNKKTCTYTVVEK [PMSP, peptide from porcine MSP corresponding to human MSP61–80]”, the “Effect of calcium and magnesium on antifungal activity” value ([1]; data not shown) was “inhibited by calcium but not magnesium”, the “Fungicidal activity compared with human MSP61–80” value ([1]; pH 4, with and without EDTA, Figure S4) was “even higher fungicidal activity than its human counterpart” and the “Difference of mean colony counts between control and treatment” value ([1]; pH 4, with and without EDTA, three independent experiments) was “Significant difference (reduction)”.
With “EWQTDNCETCTCYETEISCC [MSP3, synthetic MSP-derived peptide]” the “Estimate (difference between means of log values)” value [1, 3] was 0.09392, the “Estimate (difference between means of log values)” value [1, 4] was 0.05166 and the “Estimate (difference between means of log values)” value [1, 5] was -0.02824. The “Estimate (difference between means of log values)” value [1, 6] was -0.2487, the “Estimate (difference between means of log values)” value [1, 7] was -0.7316 and the “Estimate (difference between means of log values)” value [1, 8] was -0.09956.
With `O=C(O)CN(CCN(CC(=O)O)CC(=O)O)CC(=O)O` [EDTA, reference compound] the “Estimate (difference between means of log values)” value ([1]; 25 µM, pH 4, experiment 1) was 0.3309, the “Estimate (difference between means of log values)” value ([1]; 25 µM, pH 4, experiment 2) was -0.2077 and the “Estimate (difference between means of log values)” value ([1]; 25 µM, pH 4, experiment 3) was -0.01878. For the same molecule, the Liposome rupture [2] was “no liposome rupture”.
In the case of “KDNCQRIFKKEDCKYIVVEK [MSP5, synthetic MSP-derived peptide encompassing residues 61–80]”, the “Fungicidal activity in CFU assay (rank among overlapping peptides)” value ([1]; 5 µM, pH 4) is reported as “highest fungicidal activity of the tested peptides”, the “Estimate (difference between means of log values)” value [1, 3] is reported as 2.0492 and the “Estimate (difference between means of log values)” value [1, 4] is reported as 4.5365. For the same molecule, the “Estimate (difference between means of log values)” value [1, 5] was 3.0952, the “Estimate (difference between means of log values)” value [1, 6] was 0.5704 and the “Estimate (difference between means of log values)” value [1, 7] was 0.3334. For the same molecule, the “Estimate (difference between means of log values)” value [1, 8] was 0.6913.
In the case of “SCYFIPNEGVPGDSTRKCMD [MSP1, synthetic MSP-derived peptide]”, the “Estimate (difference between means of log values)” value [1, 3] is reported as -0.3564, the “Estimate (difference between means of log values)” value [1, 4] is reported as -0.5558 and the “Estimate (difference between means of log values)” value [1, 5] is reported as -0.1369. For the same molecule, the “Estimate (difference between means of log values)” value [1, 6] was -0.6949, the “Estimate (difference between means of log values)” value [1, 7] was -0.6938 and the “Estimate (difference between means of log values)” value [1, 8] was -0.2057.
With “EISCCTLVSTPVGYDKDNCQ [MSP4, synthetic MSP-derived peptide]” the “Estimate (difference between means of log values)” value [1, 3] was -0.3731, the “Estimate (difference between means of log values)” value [1, 4] was -0.4012 and the “Estimate (difference between means of log values)” value [1, 5] was -0.1411. The “Estimate (difference between means of log values)” value [1, 6] was -0.5304, the “Estimate (difference between means of log values)” value [1, 7] was -0.8100 and the “Estimate (difference between means of log values)” value [1, 8] was -0.2155.
With “prostate specific antigen: major protein from the prostate [reference compound]” the “Clearing zone in antifungal gel overlay assay” value (C. albicans) was “did not give rise to clearing zones”.
With “IVVEKKDPKKTCSVSEWII [MSP6, synthetic MSP-derived peptide]” the “Estimate (difference between means of log values)” value [1, 3] was 1.6087, the “Estimate (difference between means of log values)” value [1, 4] was 3.2325 and the “Estimate (difference between means of log values)” value [1, 5] was 0.6931. The “Estimate (difference between means of log values)” value [1, 6] was -0.00322, the “Estimate (difference between means of log values)” value [1, 7] was 0.07848 and the “Estimate (difference between means of log values)” value [1, 8] was 0.9139.
